US20110190137A1, “METHOD TO INHIBIT ETHYLENE RESPONSES IN PLANTS” (priority 2003, published 2011)

How the values were obtained:
[1] = test system: ethylene-induced epinasty in Patio variety tomato plants; experiment: Tomato epinasty test, spray application treatment; type: in vivo; conditions: spray 10 ppm in 10% acetone/90% water, 0.05% Silwett L-77; 10 ppm ethylene; scale 0 to 10 (10 = complete protection)
Procedure: (§1) Objective: The test procedure is designed to determine the ability of an experimental compound to block the epinastic growth response induced by ethylene in tomato plants when the experimental compound is administered either as a volatile gas or as a component of a spray solution.
(§2) Treatment chambers are of an appropriate size for the test plants and are airtight. Each is fitted with a reusable septum to be used for injection of ethylene. Test plants are Patio variety tomato seedlings planted two plants per three inch square plastic pot.
Spray application treatment entails using a DeVilbiss atomizer to completely cover all foliage and stems of two pots of Patio var. tomato plants with the appropriate amount of experimental compound dissolved in 10% acetone/90% water with 0.05% Silwett L-77 surfactant. Plants are air-dried in a drying hood for four hours then transferred to a 4.8 L polystyrene chamber which is sealed.
Ethylene gas equal to 10 ppm v/v final concentration is injected into the sealed chamber. Sixteen hours later the chambers are opened in an exhaust hood, allowed to air and the plants scored visually for the degree of protection against ethylene-induced epinasty conferred by the experimental compound when compared to ethylene treated and untreated controls on a scale of 0 to 10. A rating of 10 means complete protection. A rating of 0 means no protection from the effects of ethylene.

[2] = test system: ethylene-induced epinasty in Patio variety tomato plants; experiment: Tomato epinasty test, volatile gas treatment; type: in vivo; conditions: for Gas @ 10 ppm: visual rating of protection against ethylene-induced epinasty: gas 10 ppm v/v, 10 ppm ethylene, scale 0 to 10 (10 = complete protection); for Gas @ 1000 ppm: visual rating of protection against ethylene-induced epinasty: gas 1000 ppm v/v, 10 ppm ethylene after 4 h, scored 16 h later, scale 0 (no protection) to 10 (complete protection)
Procedure: as §1, §2
Volatile gas treatment entails placing two pots of Patio var. tomatoes into a polystyrene 4.8 L volume treatment chamber along with one-half (upper or lower section) of a 50×9 mm plastic Petri dish containing a Gelman filter pad. The appropriate amount of experimental compound, dissolved in 1.0 ml acetone, is pipetted onto the filter pad and the chamber immediately sealed. Four hours later ethylene gas equal to 10 ppm v/v final concentration is injected into the sealed chamber. Sixteen hours later the chambers are opened in an exhaust hood, allowed to air and the plants scored visually for the degree of protection against ethylene-induced epinasty conferred by the experimental compound when compared to ethylene treated and untreated controls on a scale of 0 to 10. A rating of 10 means complete protection. A rating of 0 means no protection from the effects of ethylene. Gas treatment concentrations are volume/volume.

| SMILES | Spray @10 ppm: visual rating of protection against ethylene-induced epinasty [1] | Gas @ 10 ppm: visual rating of protection against ethylene-induced epinasty [2] | Gas @ 1000 ppm: visual rating of protection against ethylene-induced epinasty [2] | Gas @ 500 ppm: rating of protection against epinasty ([2]; scale 0 to 10) | Gas @ 438 ppm: rating of protection against epinasty ([2]; gas 438 ppm (in cell), scale 0 to 10) | Gas, tested at 850 ppm: rating of protection against epinasty ([2]; gas 850 ppm (footnote b or in cell), scale 0 to 10) |
| --- | --- | --- | --- | --- | --- | --- |
| CCC1=C(n2nc(-c3ccc(Cl)cc3)ccc2=O)C1 [Compound 60, 1-Ethyl-2-(3-(4-chlorophenol)-pyridaz-6-on-1-yl)-cyclopropene] | 0 | 4 | 0 |  |  |  |
| COc1ccc(OCC2(C)C=C2)cc1 [Compound 16] | 4.5 | 3.75 |  | 10^c^ |  |  |
| C1=C(CCCCCCCn2cccn2)C1 [Compound 32] | 10 | 3 | 10 |  |  |  |
| CCCCCC1(C)C=C1 [Compound 72, 3-Methyl-3-pentyl-cyclopropene] | 2 | 0 | 9 |  |  |  |
| CC(C)(C)[Si](C)(C)OCCCCCCCC1=CC1 [Compound 82, 1-(7-T-butyldimethylsilyloxyheptyl)-cyclopropene] | 0 | 3 | 10 |  |  |  |
| O=C(OCCCC1=CC1)c1cnccn1 [Compound 61] | 0 | 0 |  |  | 10(@438 |  |
| CCOP(=S)(OCC)SCC1=C(CC)C1 [Compound 84, 1-(Diethoxy-thiophosphorylthiomethyl)-2-ethylcyclopropene] | 0 | 0 | 10 |  |  |  |
| CCCCCCCCC1=CC1C(=O)O (centres unmarked) [Compound 78, 1-Octyl-3-carboxy-cyclopropene] | 0 | 0 | 5 | 10 |  |  |
| CCCCCCCCC1=C([Si](C)(C)C)C1 [Compound 67, 2-Octyl-1-trimethylsilylcyclopropene] | 3 | 6 |  |  |  |  |
| CS(=O)(=O)Oc1ccc(C(=O)OCCCCCCCC2=CC2)cc1 [Compound 53, 1-(7-(4-Methanesulfonyloxyphenyl)-carbonyloxyheptyl)-cyclopropene] | 0 | 0 | 10 |  |  |  |
| O=C(OCCC1=CC1)c1cnc(Cl)c(Cl)c1 [Compound 50] | 0 | 0 | 9 |  |  |  |
| C1=C(CCCC2OCCCO2)C1 [Compound 3, 2-(3-Cycloprop-1-enyl-propyl)-[1,3]dioxane] | 0 | 8 |  |  |  |  |
| CCCCCCCCC1=C(B2OCO2)C1 [Compound 38, 2-Octyl-1-(2-(2-boro-1,3dioxetane))-cyclopropene] | 0 | 3 |  |  |  | 10(@850 |
